Consider four compounds from patent US20230405031A1, “METHODS AND COMPOSITIONS RELATED TO RECEPTOR-MEDIATED GLUCOSE SENSING” (Ohio State Innovation Foundation, priority 2020, published 2023).

Experiment [1] relates to ERK2 phosphorylation. Description: ERK2 phosphorylation in gastrocnemius after intramuscular injection of STR ligands. It is filed as in vivo. The conditions noted are these: intra-muscular injection, anesthetized mice after overnight fast, WT vs T1R2-KO, vs vehicle in contralateral muscle. As to the method:
FIGS. 8A-8E show STR signaling involves ERK2 and SIRT1 activation. (8A) ERK1/2 phosphorylation in gastrocnemius from fed mice. Quantitation includes both ERK1 and ERK2 bands (n=6/group). (8B-8C) ERK2 phosphorylation in response to bilateral intramuscular injection of either sucralose or 3-OMG (right gastroc) or vehicle (left gastroc) in anesthetized mice after an overnight fast (n=8/group). (8D) NAD levels in C2C12 cells culture in high (black dots) or low (blue dots) glucose for 54 h. In select cells, equal molarity (20 mM) of glucose (Glu) or 3-OMG was added during the last 6 h (ANOVA). (8E) PGC1a acetylation in gastrocnemius from 5 hours fasted mice using immunoprecipitation (IP) with anti-PGC1a (Millipore ST1202) and then immunoblotting (IB) with anti-PGC1a and anti-acetyl-lysine (CST #9441). IB of PGC1a is shown in input. Student's T-test, p value. Elucidation of signaling pathway leading to PARP1 regulation and NAD^+ bioavailability. The reduced PARP1 activity in T1R2-KO muscles correlates with substantial increases in NAD^+ levels (FIGS. 2C and 3B). STR belong to the Gq family of GPCRs and, in various tissues, activate phospholipase C (PLC)-mediated signaling cascades (9, 62) (FIG. 7). PARP1 is mainly regulated in response to DNA damage (63), but it was reasoned that a downstream effector(s) of PLC-dependent pathway may regulate PARP1 in skeletal muscle. […]

Experiment [2] has as its system C2C12 cells. Description: NAD levels in differentiated C2C12 cells cultured at high or low glucose. It is filed as cell-based. The conditions noted are these: 20 mM added during the last 6 h to low-glucose (5 mM) cultured differentiated C2C12 cells, 54 h culture. As to the method: FIGS. 8A-8E show STR signaling involves ERK2 and SIRT1 activation. (8A) ERK1/2 phosphorylation in gastrocnemius from fed mice. Quantitation includes both ERK1 and ERK2 bands (n=6/group). (8B-8C) ERK2 phosphorylation in response to bilateral intramuscular injection of either sucralose or 3-OMG (right gastroc) or vehicle (left gastroc) in anesthetized mice after an overnight fast (n=8/group). (8D) NAD levels in C2C12 cells culture in high (black dots) or low (blue dots) glucose for 54 h. In select cells, equal molarity (20 mM) of glucose (Glu) or 3-OMG was added during the last 6 h (ANOVA). (8E) PGC1a acetylation in gastrocnemius from 5 hours fasted mice using immunoprecipitation (IP) with anti-PGC1a (Millipore ST1202) and then immunoblotting (IB) with anti-PGC1a and anti-acetyl-lysine (CST #9441). IB of PGC1a is shown in input. Student's T-test, p value. Determination of downstream effectors of NAD^+-SIRT axis. To shed light on the link between STR activation and NAD regulation, differentiated C2C12 cells were cultured at high (25 mM) or low (5 mM) glucose for 54 hours and observed an anticipated increase in NAD levels during the low-glucose condition (FIG. 8D) (18, 69). […] Thus, it appears that a STR-mediated regulation of NAD^+-SIRT axis is sufficient to account for key muscle adaptations in T1R2-KO mice. […]

The target of experiment [3] is T1, SIRT1 (Homo sapiens, UniProt Q96EB6).
T1 sequence (Q96EB6 1-747): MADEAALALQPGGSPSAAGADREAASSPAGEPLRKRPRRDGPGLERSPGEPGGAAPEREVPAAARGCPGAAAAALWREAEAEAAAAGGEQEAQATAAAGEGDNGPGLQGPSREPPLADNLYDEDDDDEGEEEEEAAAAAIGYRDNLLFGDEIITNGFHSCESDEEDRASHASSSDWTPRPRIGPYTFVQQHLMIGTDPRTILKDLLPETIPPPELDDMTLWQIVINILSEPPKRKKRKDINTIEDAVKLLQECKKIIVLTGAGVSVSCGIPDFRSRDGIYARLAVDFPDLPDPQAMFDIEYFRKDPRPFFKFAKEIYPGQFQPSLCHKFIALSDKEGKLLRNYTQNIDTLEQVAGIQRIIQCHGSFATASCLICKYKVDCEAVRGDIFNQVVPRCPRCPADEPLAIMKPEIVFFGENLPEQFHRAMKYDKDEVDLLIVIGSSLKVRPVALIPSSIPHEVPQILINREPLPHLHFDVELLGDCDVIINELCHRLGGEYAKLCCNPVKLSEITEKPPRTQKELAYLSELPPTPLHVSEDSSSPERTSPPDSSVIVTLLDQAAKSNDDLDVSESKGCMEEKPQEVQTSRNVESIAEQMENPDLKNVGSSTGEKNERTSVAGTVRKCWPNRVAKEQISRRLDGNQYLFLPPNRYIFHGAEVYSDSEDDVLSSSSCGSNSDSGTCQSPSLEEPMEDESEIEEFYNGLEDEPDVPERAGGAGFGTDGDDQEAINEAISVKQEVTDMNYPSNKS
The conditions noted are these: read-out: Km (affinity for NAD+); cited from earlier work.

In experiment [4] the target is T2, SIRT2 (Homo sapiens, UniProt Q8IXJ6).
T2 sequence (Q8IXJ6 1-389): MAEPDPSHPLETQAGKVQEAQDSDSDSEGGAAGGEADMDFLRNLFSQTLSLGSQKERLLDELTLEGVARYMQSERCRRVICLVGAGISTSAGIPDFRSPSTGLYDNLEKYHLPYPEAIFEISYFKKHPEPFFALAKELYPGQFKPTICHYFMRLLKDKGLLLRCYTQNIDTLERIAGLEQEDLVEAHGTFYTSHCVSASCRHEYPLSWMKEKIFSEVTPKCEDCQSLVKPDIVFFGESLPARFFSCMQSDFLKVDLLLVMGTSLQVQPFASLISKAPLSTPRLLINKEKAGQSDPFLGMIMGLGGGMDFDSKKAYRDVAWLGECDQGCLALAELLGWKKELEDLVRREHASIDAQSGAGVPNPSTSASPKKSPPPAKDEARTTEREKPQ
The settings on record: read-out: Km (affinity for NAD+); cited from earlier work.

For experiment [5], the system named is muscle fibers. Description: Oxygen flux in permeabilized muscle fibers (high resolution respirometry). Also noted: species or system mice. The conditions noted are these: after malate+pyruvate and ADP, data not shown. The text has this:
FIGS. 4A-4H show STRs regulate mitochondrial function and exercise capacity. (4A) Oxygen flux in muscle fibers in response to malate+pyruvate and ADP. […] (4B) Oxygen consumption rate (OCR) in differentiated myoblasts. Oligomycin (Comp V inhibition), FCCP (Carbonyl cyanide-4 (trifluoromethoxy) phenylhydrazone; uncoupler), rotenone (Comp I inhibition) (n=5/group). (4C) Quantitative analysis of lactate, ATP and ADP in gastrocnemius following 5-hours fasting (n=9-11/group). (4D) Succinate dehydrogenase staining in muscle sections. Arrows show SDH staining in gastrocnemius n=6/group). (4E) Immunoblotting of mitochondrial complex proteins with quantitation (n=6/group). (4F) Exercise endurance in mice at […] grade and 20 m/min (n=8/group). (4G) Oxygen consumption and (4H) respiratory exchange ratio (RER) under steady state conditions (plateaued values for at least 10 min) before exhaustion in mice subjected to a submaximal exercise bout as in (4F). Student's t-test, p value for (4B-4H).
ADPr is converted to PRPP, which can be used either for NAD^+ regeneration (salvage pathway), or for nucleotide synthesis (FIG. 2F), showing that ADPr can be a metabolic link between NAD^+ and purine/pyrimidine metabolism. Therefore, it was reasoned that the unprecedented depletion of ADPr in T1R2-KO muscles can be due to reduced NAD-consumption and/or increased PRPP utilization for nucleotide biosynthesis. […]

Regarding `CO[C@@H]([C@H](O)[C@H](O)CO)[C@@H](O)C=O` [3-OMG, 3-O-methylglucose], the ERK2 phosphorylation result in experiment [1] was “activated ERK2 phosphorylation in WT, but not in T1R2-KO muscles”. In addition, in experiment [2], the NAD levels result was “caused a significant drop in NAD, although to a lesser extent than 20 mM glucose”.
In the case of `NC(=O)c1ccc[n+]([C@@H]2O[C@H](COP(=O)([O-])OP(=O)(O)OC[C@H]3O[C@@H](n4cnc5c(N)ncnc54)[C@H](O)[C@@H]3O)[C@@H](O)[C@H]2O)c1` [NAD^+, Nicotinamide adenine dinucleotide], the results for the Michaelis constant (Km) in experiment [3] and in experiment [4] were 95 µM and 83 µM, respectively.
antimycin A: the Oxygen flux result in experiment [5] is “suppressed oxygen flux”.
Take `OC[C@H]1O[C@H](O[C@]2(CCl)O[C@H](CCl)[C@@H](O)[C@@H]2O)[C@H](O)[C@@H](O)[C@H]1Cl` [sucralose]: the ERK2 phosphorylation result in experiment [1] is “activated ERK2 phosphorylation in WT, but not in T1R2-KO muscles”.
